Data: article PMC4805166, “Synthetic Cyclolipopeptides Selective against Microbial, Plant and Animal Cell Targets by Incorporation of D-Amino Acids or Histidine” (PLoS ONE, 2016)
“And” between values parts separate entries of the source, which are not always exact repeats. Equal entries are not always repeated. Where two headings read alike, the source gives them in different places. Where a SMILES comes first, the peptide text is derived from it. Side-chain parts run from the residue outwards. [ ]: non-standard residue; d: D form. The star is where a group is joined. Octanoyl = CCCCCCCC(=O)*; Hexanoyl = CCCCCC(=O)*

Columns and labels:
[1] = test system: Pseudomonas syringae pv. syringae EPS94; type: cell-based; details: 48 h
Method: (§1) The following plant pathogenic bacterial strains were used: Erwinia amylovora PMV6076 (Institut National de la Recherche Agronomique, Angers, France), Pseudomonas syringae pv. syringae EPS94 (Institut de Tecnologia Agroalimentària, Universitat de Girona, Spain) and Xanthomonas axonopodis pv. vesicatoria 2133–2 (Instituto Valenciano de Investigaciones Agrarias, Valencia, Spain). All bacteria were stored in Luria Bertani (LB) broth supplemented with glycerol (20%) and maintained at -80°C. Bacteria were scrapped from LB agar after growing for 24–48 h at 25°C. The cell material was suspended in sterile water to obtain a suspension of 10^8 CFU mL^-1.
(§2) Lyophilized peptides were solubilized in sterile Milli-Q water to a final concentration of 1 mM and filter sterilized through a 0.22-μm pore filter. For minimum inhibitory concentration (MIC) assessment, dilutions of the compounds were made to obtain a stock concentration of […]. For antibacterial activity twenty microlitres of each dilution were mixed in a microtiter plate well with 20 μL of the corresponding suspension of the bacterial indicator, 160 μL of Trypticase Soy Broth (TSB) (BioMèrieux, France) to a total volume of 200 μL. For antifungal activity 20 μL of each stock solution were mixed in a microtiter plate well with 80 μL of the corresponding suspension of the fungal pathogen and 100 μL of double concentrated PDB to a total volume of 200 μL containing 0.003% w/v of choramphenicol.
(§3) Three replicates for each strain, compound and concentration were used. Microbial growth was determined by optical density measurement at 600 nm (Bioscreen C, Labsystem, Helsinki, Finland). For antibacterial activity microplates were incubated at 25°C with 20 sec shaking before hourly absorbance measurement for 48 h. For antifungal activity microplates were incubated at 20°C with 1 min shaking before absorbance measurement that were done every two hours during seven days. The experiment was repeated twice. The MIC was taken as the lowest compound concentration with no growth at the end of the experiment.

[2] = test system: Xanthomonas axonopodis pv. vesicatoria 2133–2; type: cell-based; details: TSB, 25°C, 48 h, OD 600 nm; tested at 3.1, 6.2, 12.5, 25, 50 μM; three replicates, experiment repeated twice; MIC = lowest concentration with no growth
Method: as §1, §2, §3

[3] = test system: Erwinia amylovora PMV6076; assay: MIC, in vitro growth inhibition; type: cell-based; details: TSB, 25°C, 48 h, OD 600 nm; tested at 3.1, 6.2, 12.5, 25, 50 μM; three replicates, experiment repeated twice; MIC = lowest concentration with no growth
Method: as §1, §2, §3

[4] = test system: Fusarium oxysporum f. sp. lycopersici FOL 3 race 2; assay: MIC, antifungal growth inhibition; type: cell-based
Method: Fusarium oxysporum f. sp. lycopersici FOL 3 race 2 (ATCC 201829, American Type Culture Collection) was used as fungal pathogen. The strain was cultured on potato dextrose agar (PDA) plates (Difco) and microconidia were obtained after growth at 25°C. The concentration of conidia was determined using a hemacytometer and adjusted to 10^4 conidia mL^-1.
as §2, §3

[5] = test system: erythrocyte suspensions of horse blood; details: horse erythrocytes 5% vol/vol, TRIS buffer pH 7.2, 1 h at 37°C, absorbance 540 nm, relative to melittin 100 μM, ± confidence interval (α = 0.05); for Hemolysis (%) 150 µM: 150 µM peptide; for Hemolysis (%) 250 µM: 250 µM peptide;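 on all read-outs here: Read-out is hemoglobin release into the supernatant, with a buffer-only blank subtracted as the 0% baseline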
Method: Blood was centrifuged at 6000g for 5 min, washed three times with TRIS buffer (10 mM TRIS, 150 mM NaCl, pH 7.2) and diluted.
Compounds were solubilized in TRIS buffer and mixed with horse erythrocytes and the final concentrations tested were 250 and 150 μM. The mixture was incubated under continuous shaking for 1 h at 37°C. Then, the tubes were centrifuged at 3500g for 10 min, 80 μL aliquots of the supernatant transferred to 100-well microplates (Bioscreen), diluted with 80 μL water, and the absorbance measured at 540 nm (Bioscreen). Complete hemolysis was obtained by the addition of melittin at 100 μM (Sigma-Aldrich Corporation, Madrid, Spain). The percentage of hemolysis (H) was calculated using the equation: H = 100×[(Op−Ob)/(Om−Ob)], where Op was the density for a given compound concentration, Ob for the buffer, and Om for the melittin positive control.

[6] = PDB with 0.003% chloramphenicol, 20°C, seven days, OD 600 nm, tested at 3.1, 6.2, 12.5, 25, 50 μM, three replicates, repeated twice

| Compound | MIC Pss [1] [µM] | MIC Xav [2] | MIC Ea [3] [µM] | MIC Fo [4, 6] [µM] | Hemolysis (%) 150 µM [5] [%] | Hemolysis (%) 250 µM [5] [%] | MIC Fo [4] [µM] |
| --- | --- | --- | --- | --- | --- | --- | --- |
| CCCCCCCC(=O)NCCCC[C@@H]1NC(=O)[C@H](CCCCN)NC(=O)[C@H](CC(C)C)NC(=O)[C@H](CCCCN)NC(=O)[C@H](CCCCN)NC(=O)[C@H](CCC(N)=O)NC(=O)[C@H](CC(C)C)NC(=O)[C@H](CCCCN)NC(=O)[C@H](CCCCN)NC(=O)[C@H](Cc2c[nH]cn2)NC1=O [BPC670, c(KKLKK(CO-C7H15)HKKLQ)] (cyclo(HKKLQKKLKK(Octanoyl))) | 12.5 to 25 | 12.5 to 25 µM | 25 to 50 | 3.1 to 6.2 | 34 ± 1 | 40 ± 1 |  |
| CCCCCC(=O)N[C@@H](CCCCN)C(=O)N[C@@H](CC(C)C)C(=O)NCCCC[C@H]1NC(=O)[C@H](CCCCN)NC(=O)[C@H](CC(C)C)NC(=O)[C@H](CCCCN)NC(=O)[C@H](CCCCN)NC(=O)[C@H](CCC(N)=O)NC(=O)[C@H](CC(C)C)NC(=O)[C@H](CCCCN)NC(=O)[C@H](CCCCN)NC(=O)[C@H](Cc2ccccc2)NC1=O [BPC672, c(KKLKk(LK-CO-nC5H11)FKKLQ)] (cyclo(FKKLQKKLK[dK]([Leu-Lys-Hexanoyl]))) | 6.2 to 12.5 | 3.1 to 12.5 µM and 6.2 to 12.5 µM | 25 to 50 | 3.1 to 6.2 | 33 ± 2 | 33 ± 2 | 3.1 to 6.2 |
| CCCCCC(=O)N[C@@H](CCCCN)C(=O)N[C@@H](CC(C)C)C(=O)NCCCC[C@@H]1NC(=O)[C@H](CCCCN)NC(=O)[C@H](CC(C)C)NC(=O)[C@H](CCCCN)NC(=O)[C@H](CCCCN)NC(=O)[C@H](CCC(N)=O)NC(=O)[C@H](CC(C)C)NC(=O)[C@H](CCCCN)NC(=O)[C@H](CCCCN)NC(=O)[C@@H](Cc2ccccc2)NC1=O [BPC674, c(KKLKK(LK-CO-nC5H11)fKKLQ)] (cyclo(KKLKK([Leu-Lys-Hexanoyl])[dF]KKLQ)) | 6.2 to 12.5 | 3.1 to 12.5 µM and 6.2 to 12.5 µM | 25 to 50 | 3.1 to 6.2 | 51 ± 2 | 56 ± 2 | 3.1 to 6.2 |
| CCCCCC(=O)NCCCC[C@H]1NC(=O)[C@H](CCCCN)NC(=O)[C@H](CCC(N)=O)NC(=O)[C@H](CC(C)C)NC(=O)[C@H](CCCCN)NC(=O)[C@H](CCCCN)NC(=O)[C@H](Cc2ccccc2)NC(=O)[C@H](CCCCN)NC(=O)[C@H](CCCCN)NC(=O)[C@H](CC(C)C)NC1=O [BPC678] (cyclo(FKKLQK[dK](Hexanoyl)LKK)) | 12.5 to 25 | 6.2 to 12.5 µM | 25 to 50 | 3.1 to 6.2 | 68 ± 3 | 73 ± 4 |  |
| CCCCCC(=O)NCCCC[C@@H]1NC(=O)[C@H](CCCCN)NC(=O)[C@H](CCC(N)=O)NC(=O)[C@H](CC(C)C)NC(=O)[C@H](CCCCN)NC(=O)[C@H](CCCCN)NC(=O)[C@@H](Cc2ccccc2)NC(=O)[C@H](CCCCN)NC(=O)[C@H](CCCCN)NC(=O)[C@H](CC(C)C)NC1=O [BPC680, c(KK(CO-nC5H11)LKKfKKLQ)] (cyclo(KK(Hexanoyl)LKK[dF]KKLQ)) | 25 to 50 | 12.5 to 25 µM | 25 to 50 | 3.1 to 6.2 | 77 ± 2 | 81 ± 4 |  |
| CCCCCC(=O)NCCCC[C@@H]1NC(=O)[C@H](CCCCN)NC(=O)[C@H](CCC(N)=O)NC(=O)[C@H](CC(C)C)NC(=O)[C@H](CCCCN)NC(=O)[C@H](CCCCN)NC(=O)[C@H](Cc2c[nH]cn2)NC(=O)[C@H](CCCCN)NC(=O)[C@H](CCCCN)NC(=O)[C@H](CC(C)C)NC1=O [BPC682] (cyclo(HKKLQKK(Hexanoyl)LKK)) | 12.5 to 25 | 12.5 to 25 µM | 25 to 50 | 3.1 to 6.2 | 20 ± 3 | 27 ± 1 |  |
